Key:
[1] = test system: LPS-induced TNFα release in THP-1 cells; assay: LPS-induced TNFα release in THP-1 cells; format: cell-based; conditions: Homo sapiens, 3 μg/mL LPS, 4 hr
Experimental: Cellular Potency as Determined by LPS-Induced TNFα Release in THP-1 Cells
THP-1 cells, a human monocytic cell line, were stimulated with 3 μg/mL of LPS (from E. Coli; 0111:B4, Sigma) for 4 hr and the supernatant collected for determination of the TNFα concentration by sandwich ELISA (Duo-set, R&D systems). The inhibition of TNFα production was calculated at each concentration by comparison with vehicle control. The 50% inhibitory concentration (IC50) was determined from the resultant concentration-response curve.

[2] = test system: LPS-induced IL-8 release in d-U937 cells; assay: LPS-induced IL-8 release in d-U937 cells; format: cell-based; conditions: Homo sapiens, dU937, 0.1 μg/mL LPS, 4 hr
Experimental: (§1) Cellular Potency as Determined by LPS-Induced TNFα/IL-8 Release in d-U937Cells
(§2) U937 cells, a human monocytic cell line, were differentiated to macrophage-type cells by incubation with phorbol myristate acetate (PMA; 100 ng/mL) for 48 to 72 hr. Cells were pre-incubated with final concentrations of test compound for 2 hr and were then stimulated with 0.1 μg/mL of LPS (from E. Coli: O111:B4, Sigma) for 4 hr. The supernatant was collected for determination of TNFα and IL-8 concentrations by sandwich ELISA (Duo-set, R&D systems). […] The relative 50% effective concentration (REC50) was determined from the resultant concentration-response curve. The inhibition of IL-8 production was calculated at each concentration of test compound by comparison with vehicle control. The 50% inhibitory concentration (IC50) was determined from the resultant concentration-response curve.

[3] = test system: Poly I:C-induced ICAM-1 expression in BEAS2B cells; assay: Poly I:C-induced ICAM-1 induction in BEAS2B cells; format: cell-based; conditions: Homo sapiens, BEAS-2B, poly I:C 1 μg/mL, 18 hr, read-out: PolyI:C/ICAM1 IC50 BEAS2B
Experimental: Cellular Potency as Determined by Poly I:C-Induced ICAM-1 Induction in BEAS2B Cells
Poly I:C (1 μg/mL) (Invivogen Ltd., San Diego, Calif.) was transfected into BEAS2B cells (human bronchial epithelial cells, ATCC) with Oligofectamine (Invitrogen, Carlsbad, Calif.). Cells were pre-incubated with final concentrations of test compounds for 2 hr and the level of ICAM1 expression on the cell surface was determined by cell-based ELISA. At a time point 18 hr after poly I:C transfection, cells were fixed with 4% formaldehyde in PBS and then endogenous peroxidase was quenched by the addition of 0.1% sodium azide and 1% hydrogen peroxide. Cells were washed with wash-buffer (0.1% Tween in PBS: PBS-Tween). and after blocking the wells with 5% milk in PBS-Tween for 1 hr, the cells were incubated with anti-human ICAM-1 antibody (Cell Signaling Technology, Danvers, Mass.) in 1% BSA PBS overnight at 4° C. The cells were washed with PBS-Tween and incubated with the secondary antibody (HRP-conjugated anti-rabbit IgG, Dako Ltd., Glostrup, Denmark). The ICAM-1 signal was detected by adding substrate and reading the absorbance at 450 nm against a reference wavelength of 655 nm using a spectrophotometer. The cells were then washed with PBS-Tween and total cell numbers in each well were determined by reading absorbance at 595 nm after Crystal Violet staining and elution by 1% SDS solution. The measured OD 450-655 readings were corrected for cell number by dividing with the OD595 reading in each well. The inhibition of ICAM-1 expression was calculated at each concentration of test compound by comparison with vehicle control. The 50% inhibitory concentration (IC50) was determined from the resultant concentration-response curve.

[4] = test system: Differentiated U937 cells; assay: MTT assay: cell viability on exposure to test compounds; format: cell-based, human; conditions: percentage loss of cell viability vs vehicle, 1 μg/mL; for MTT Assay (Viability) 4 h d-U937: 5% FCS; for MTT Assay (Viability) 24 h d-U937: 10% FCS
Experimental: MTT Assay: Determination of Cell Viability on Exposure to Test Compounds
Differentiated U937 cells were pre-incubated with each test compound under two protocols: the first for 4 hr in 5% FCS and the second in 10% FCS for 24 h. The supernatant was replaced with 200 μL of new media and 10 μL of MTT stock solution (5 mg/mL) was added to each well. After incubation for 1 hr the media were removed, 200 μL of DMSO was added to each well and the plates were shaken lightly for 1 hr prior to reading the absorbance at 550 nm. The percentage loss of cell viability was calculated for each well relative to vehicle (0.5% DMSO) treatment. Consequently an apparent increase in cell viability for drug treatment relative to vehicle is tabulated as a negative percentage.

[5] = target: T1, Recombinant, phosphorylated p38 MAPKγ (MAPK12:Invitrogen) (Homo sapiens, UniProt P53778); assay: p38 MAPKγ enzyme inhibition assay (FRET, Z-LYTE); format: biochemical; conditions: 2 hr pre-incubation, ATP 100 μM; read-out: Enzyme Inhibition IC50 p38γ
T1 construct: purchased Invitrogen
T1 sequence (P53778 1-367): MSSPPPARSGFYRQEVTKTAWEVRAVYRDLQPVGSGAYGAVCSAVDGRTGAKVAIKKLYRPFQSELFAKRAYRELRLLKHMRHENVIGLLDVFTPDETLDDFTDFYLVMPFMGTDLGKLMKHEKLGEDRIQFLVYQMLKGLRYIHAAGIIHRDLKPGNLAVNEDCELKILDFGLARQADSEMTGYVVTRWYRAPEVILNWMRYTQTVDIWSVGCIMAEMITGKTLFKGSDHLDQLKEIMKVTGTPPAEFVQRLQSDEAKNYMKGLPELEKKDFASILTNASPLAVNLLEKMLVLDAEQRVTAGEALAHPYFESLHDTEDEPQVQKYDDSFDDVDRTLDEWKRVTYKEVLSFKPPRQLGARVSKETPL
Experimental: (§3) The enzyme inhibitory activities of compounds disclosed herein were determined by fluorescence resonance energy transfer (FRET) using synthetic peptides labelled with both donor and acceptor fluorophores (Z-LYTE, Invitrogen Ltd., Paisley, UK). Recombinant, phosphorylated p38 MAPKγ (MAPK12:Invitrogen) was diluted in HEPES buffer, mixed with the test compound at the desired final concentrations and incubated for 2 hr at RT. The FRET peptide (2 μM) and ATP (100 μM) were added to the enzyme/compound mixture and incubated for 1 hr. Development reagent (protease) was added for 1 hr prior to detection in a fluorescence microplate reader (Varioskan® Flash, ThermoFisher Scientific). The site-specific protease cleaves non-phosphorylated peptide only and eliminates the FRET signal. Phosphorylation levels of each reaction were calculated using the ratio of coumarin emission (donor) over fluorescein emission (acceptor) for which high ratios indicate high phosphorylation and low ratios indicate low phosphorylation levels.

[6] = target: T2, p38 MAPKα isoform (MAPK14: Invitrogen) (Homo sapiens, UniProt Q16539); assay: p38 MAPKα enzyme inhibition assay (FRET, Z-LYTE, via MAPKAP-K2 activation); format: biochemical; conditions: 2 hr pre-incubation, ATP 10.0 μM; read-out: Enzyme Inhibition IC50 p38α
T2 construct: purchased Invitrogen
Experimental: as §3
For the p38 MAPKα isoform (MAPK14: Invitrogen), enzyme activity was evaluated indirectly by determining the level of activation/phosphorylation of the down-stream molecule, MAPKAP-K2. The p38 MAPKα protein was mixed with the test compound for 2 hr at RT. […] Development reagent was then added and the mixture incubated for 1 hr before detection by fluorescence completed the assay protocol.

[7] = test system: LPS-induced TNFα release in d-U937 cells; assay: LPS-induced TNFα release in d-U937 cells; format: cell-based; conditions: Homo sapiens, dU937, 4 h; read-out: LPS/TNFα REC50 d-U937
Experimental: as §1, §2

T2 sequence (Q16539 whole entry, canonical isoform): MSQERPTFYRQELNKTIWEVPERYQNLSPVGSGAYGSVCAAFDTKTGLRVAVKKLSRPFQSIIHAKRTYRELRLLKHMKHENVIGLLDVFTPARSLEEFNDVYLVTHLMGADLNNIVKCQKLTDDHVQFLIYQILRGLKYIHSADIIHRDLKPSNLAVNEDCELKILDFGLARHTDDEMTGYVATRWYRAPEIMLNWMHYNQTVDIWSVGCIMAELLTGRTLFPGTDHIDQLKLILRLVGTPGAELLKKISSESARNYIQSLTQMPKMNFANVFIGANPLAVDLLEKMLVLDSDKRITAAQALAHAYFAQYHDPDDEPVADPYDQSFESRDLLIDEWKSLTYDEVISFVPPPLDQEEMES

Row | SMILES | IC50 [1] [nM] | IC50 [2] [nM] | IC50 [3] [nM] | MTT Assay (Viability) 4 h d-U937 [4] [%] | MTT Assay (Viability) 24 h d-U937 [4] [%] | IC50 [5] [nM] | IC50 [6] [nM] | EC50 [7] [nM]
1 | COCC(=O)Nc1cc(Oc2ccc(NC(=O)Nc3cc(C(C)(C)C)nn3-c3cccs3)c3ccccc23)ccn1 [Example 56, N-(4-(4-(3-(3-tert-butyl-1-(thiophen-2-yl)-1H-pyrazol-5-yl)ureido)naphthalen-1-yloxy)pyridin-2-yl)-2-methoxyacetamide] | 0.6 | 0.5 | 13.4 | 4.8 | 43.1 | 55 | 6.6 | 
2 | COCC(=O)Nc1cc(Oc2ccc(NC(=O)Nc3cc(C(C)(C)C)nn3-c3ccc(OC)c(OC)c3)c3ccccc23)ccn1 [Example 11, N-(4-(4-(3-(3-tert-Butyl-1-(3,4-dimethoxyphenyl)-1H-pyrazol-5-yl)ureido)naphthalen-1-yloxy)pyridin-2-yl)-2-methoxyacetamide] | 0.6 | 3.6 | 2.5 | −9.3 | −0.8 | 151 | 4 | 0.2
3 | COCC(=O)Nc1cc(Oc2ccc(NC(=O)Nc3cc(C(C)(C)C)nn3-c3cc(OC)cc(OC)c3)c3ccccc23)ccn1 [Example 53, N-(4-(4-(3-(3-tert-butyl-1-(3,5-dimethoxyphenyl)-1H-pyrazol-5-yl)ureido)naphthalen-1-yloxy)pyridin-2-yl)-2-methoxyacetamide] | 1.2 | 20 | 27.4 | 3.1 | −0.9 | 83.4 | 29.9 | 0.4
4 | CC(C)(C)c1cc(NC(=O)Nc2ccc(Oc3ccnc(NC(=O)N4CCOCC4)c3)c3ccccc23)n(-c2ccc(S(C)(=O)=O)cc2)n1 [Example 49, N-(4-(4-(3-(3-tert-butyl-1-(4-(methylsulfonyl)phenyl)-1H-pyrazol-5-yl)ureido)naphthalen-1-yloxy)pyridin-2-yl)morpholine-4-carboxamide] | 0.8 | 0.8 | 10.7 | −15.9 | 11.8 | 185 | 5.2 | 0.5
5 | COc1ccc(-n2nc(C(C)(C)C)cc2NC(=O)Nc2ccc(Oc3ccnc(NC(=O)N4CCOCC4)c3)c3ccccc23)cc1 [Example 9, N-(4-((4-(3-(3-tert-Butyl-1-(4-methoxyphenyl)-1H-pyrazol-5-yl)ureido)naphthalen-1-yl)oxy)pyridin-2-yl)morpholine-4-carboxamide] | 0.5 | 1.4 | 2.1 | −5.7 | 18.6 | 203 | 2.7 | 0.6
6 | COCC(=O)Nc1cc(Oc2ccc(NC(=O)Nc3cc(C(C)(C)C)nn3-c3ccc(C(=O)OC)cc3)c3ccccc23)ccn1 [Example 43, methyl 4-(3-tert-butyl-5-(3-(4-((2-(2-methoxyacetamido)pyridin-4-yl)oxy)naphthalen-1-yl)ureido)-1H-pyrazol-1-yl)benzoate] | 2 | 8.9 | 1.7 | −12.8 | 0.1 | 192 | 8.3 | 1.6
7 | COCC(=O)Nc1cc(Oc2ccc(NC(=O)Nc3cc(C(C)(C)C)nn3-c3ccc(O)cc3)c3ccccc23)ccn1 [Example 5, N-(4-((4-(3-(3-(tert-Butyl)-1-(4-hydroxyphenyl)-1H-pyrazol-5-yl)ureido)naphthalen-1-yl)oxy)pyridin-2-yl)-2-methoxyacetamide] | 0.4 | 0.7 | 6.7 | 4.5 | −19.9 | 88.9 | 1.7 | 0.66
8 | COCC(=O)Nc1cc(Oc2ccc(NC(=O)Nc3cc(C4(C)CC4)nn3-c3ccc(C)cc3)c3ccccc23)ccn1 [Example 25, 2-methoxy-N-(4-(4-(3-(3-(1-methylcyclopropyl)-1-p-tolyl-1H-pyrazol-5-yl)ureido)naphthalen-1-yloxy)pyridin-2-yl)acetamide] | 0.9 | 0.7 | 21.8 | −7.6 | 4.7 | 3010 | 3.4 | 
9 | CN(C)C(=O)Nc1cc(Oc2ccc(NC(=O)Nc3cc(C(C)(C)C)nn3-c3ccc(S(C)(=O)=O)cc3)c3ccccc23)ccn1 [Example 15, 3-(4-(4-(3-(3-tert-Butyl-1-(4-(methylsulfonyl)phenyl)-1H-pyrazol-5-yl)ureido)naphthalen-1-yloxy)pyridin-2-yl)-1,1-dimethylurea] | 1.5 | 2.4 | 16.3 | −15.4 | −66.2 | 81.5 | 23.6 | 
10 | CC(C)(C)c1cc(NC(=O)Nc2ccc(Oc3ccnc(NC(=O)N4CCCC4)c3)c3ccccc23)n(-c2ccc(O)cc2)n1 [Example 35, N-(4-(4-(3-(3-tert-butyl-1-(4-hydroxyphenyl)-1H-pyrazol-5-yl)ureido)naphthalen-1-yloxy)pyridin-2-yl)pyrrolidine-1-carboxamide] | 1.6 | 1.9 | 2.1 | −15.4 | −41.3 | 324 | 11.3 | 
11 | COCC(=O)Nc1cc(Oc2ccc(NC(=O)Nc3cc(C(C)(C)C)nn3-c3ccc(CO)c(OC)c3)c3ccccc23)ccn1 [Example 51, N-(4-(4-(3-(3-tert-butyl-1-(4-(hydroxymethyl)-3-methoxyphenyl)-1H-pyrazol-5-yl)ureido)naphthalen-1-yloxy)pyridin-2-yl)-2-methoxy acetamide] | 1.6 | 38.7 | 2.5 | −5.2 | 61.0 | 149 | 11.9 | 
